Results: patent US6525001B1, “Substituted pyrimidine and pyridine herbicides” (Mid-American Commercialization Corporation, priority 1997, dated 2003)

Tests used:
Format in all cases: in vivo
[1] = test system: bedstraw (Galium aparine); test: Test B pre-/postemergence; parameters: key: 0 is no effect; 10 is complete control; conditions: for Bedstraw plant response rating: Preemergence
Description: (§1) Seeds of bedstraw (Galium aparine), blackgrass (Alopecurus myosuroides), broadleaf signalgrass (Brachiaria decumbens), cocklebur (Xanthium strumarium), corn (Zea mays), crabgrass (Digitaria sanguinalis), giant foxtail (Setaria faberii), lambsquarters (Chenopodium album), momingglory (Ipomoea hederacea), pigweed (Amaranthus retroflexus), rape (Brassica napus), soybean (Glycine max), sugar beet (Beta vulgaris), velvetleaf (Abutilon theophrasti), wheat (Triticum aestivum), wild oat (Avena fatua) and purple nutsedge (Cyperus rotundus) tubers were planted and treated preemergence with test chemicals formulated in a non-phytotoxic solvent mixture which included a surfactant.
(§2) At the same time, these crop and weed species were also treated with postemergence applications of test chemicals formulated in the same manner. Plants ranged in height from 2 to 18 cm (1- to 4-leaf stage) for postemergence treatments. Plant species in the flood test consisted of rice (Oryza sativa), smallflower flatsedge (Cyperus difformis), duck salad (Heteranthera limosa) and bamyardgrass (Echinochloa crus-galli) grown to the 2-leaf stage for testing. Treated plants and controls were maintained in a greenhouse for twelve to sixteen days, after which all species were compared to controls and visually evaluated. Plant response ratings, summarized in Table B, are based on a scale of 0 to 10 where 0 is no effect and 10 is complete control. A dash (−) response means no test result.

[2] = test system: blackgrass (Alopecurus myosuroides); test: Test B pre-/postemergence; parameters: key: 0 is no effect; 10 is complete control; conditions: for Blackgrass plant response rating: Preemergence
Description: as §1, §2

[3] = test system: broadleaf signalgrass (Brachiaria decumbens); test: Test B pre-/postemergence; parameters: key: 0 is no effect; 10 is complete control; conditions: for B. signalgrass plant response rating: Preemergence
Description: as §1, §2

[4] = test system: cocklebur (Xanthium strumarium); test: Test B pre-/postemergence; parameters: key: 0 is no effect; 10 is complete control; conditions: for Cocklebur plant response rating: Preemergence
Description: as §1, §2

corn (Zea mays) = test: Test B pre-/postemergence; parameters: key: 0 is no effect; 10 is complete control; conditions: for Corn plant response rating: Preemergence
Description: as §1, §2

[5] = test system: crabgrass (Digitaria sanguinalis); test: Test B pre-/postemergence; parameters: key: 0 is no effect; 10 is complete control; conditions: for Crabgrass plant response rating: Preemergence
Description: as §1, §2

[6] = test system: giant foxtail (Setaria faberii); test: Test B pre-/postemergence; parameters: key: 0 is no effect; 10 is complete control
Description: as §1, §2

[7] = test system: momingglory (Ipomoea hederacea); test: Test B pre-/postemergence; parameters: key: 0 is no effect; 10 is complete control
Description: as §1, §2

[8] = test system: pigweed (Amaranthus retroflexus); test: Test B pre-/postemergence; parameters: key: 0 is no effect; 10 is complete control
Description: as §1, §2

[9] = test system: purple nutsedge (Cyperus rotundus); test: Test B pre-/postemergence; parameters: key: 0 is no effect; 10 is complete control
Description: as §1, §2

rape (Brassica napus) = test: Test B pre-/postemergence; parameters: key: 0 is no effect; 10 is complete control
Description: as §1, §2

soybean (Glycine max) = test: Test B pre-/postemergence; parameters: key: 0 is no effect; 10 is complete control
Description: as §1, §2

[10] = test system: sugar beet (Beta vulgaris); test: Test B pre-/postemergence; parameters: key: 0 is no effect; 10 is complete control
Description: as §1, §2

[11] = test system: velvetleaf (Abutilon theophrasti); test: Test B pre-/postemergence; parameters: key: 0 is no effect; 10 is complete control
Description: as §1, §2

[12] = test system: wheat (Triticum aestivum); test: Test B pre-/postemergence; parameters: key: 0 is no effect; 10 is complete control
Description: as §1, §2

wild oat (Avena fatua) = test: Test B pre-/postemergence; parameters: key: 0 is no effect; 10 is complete control
Description: as §1, §2

[13] = test system: bamyardgrass (Echinochloa crus-galli); test: Test B flood test
In short: (§3)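 Read-out is a visual response score from 0 (no effect) to 10 (complete control), assigned by comparison with untreated controls. Treatment was applied at the 2-leaf stage, and plants stayed in the greenhouse for twelve to sixteen days before scoring.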

[14] = test system: duck salad (Heteranthera limosa); test: Test B flood test
In short: as §3

rice (Oryza sativa) = test: Test B flood test
In short: as §3

[15] = test system: smallflower flatsedge (Cyperus difformis); test: Test B flood test
In short: as §3

[16] = Rate 250 g/ha, Postemergence (so in the source)
[17] = Rate 62 g/ha, Postemergence (flood test)
[18] = Rate 125 g/ha, Postemergence, flood test
[19] = Rate 250 g/ha, Postemergence (flood test species)
[20] = Rate 500 g/ha, Postemergence (flood test species)
[21] = Rate 125 g/ha, Postemergence section (flood test species)

Cc1cnc(-c2ccc(C(F)(F)F)cc2)nc1Cc1cccc(C#N)c1 [Compound 32]
Plant response rating, Bedstraw ([1]; Rate 62 g/ha, Postemergence): 6
Bedstraw plant response rating ([1]; Rate 62 g/ha): 3
Plant response rating, Bedstraw ([1]; Rate 125 g/ha, Postemergence): 6
Bedstraw plant response rating ([1]; Rate 125 g/ha): 8
Plant response rating, Bedstraw ([1]; Rate 250 g/ha, Postemergence): 10
Plant response rating, Bedstraw [1, 16]: 10
Plant response rating, Blackgrass ([2]; Rate 62 g/ha, Postemergence): 1
Blackgrass plant response rating ([2]; Rate 62 g/ha): 1
Plant response rating, Blackgrass ([2]; Rate 125 g/ha, Postemergence): 2
Blackgrass plant response rating ([2]; Rate 125 g/ha): 2
Plant response rating, Blackgrass ([2]; Rate 250 g/ha, Postemergence): 5
Plant response rating, Blackgrass [2, 16]: 4
Plant response rating, B. signalgrass ([3]; Rate 62 g/ha, Postemergence): 1
B. signalgrass plant response rating ([3]; Rate 62 g/ha): 2
Plant response rating, B. signalgrass ([3]; Rate 125 g/ha, Postemergence): 2
B. signalgrass plant response rating ([3]; Rate 125 g/ha): 6
Plant response rating, B. signalgrass ([3]; Rate 250 g/ha, Postemergence): 2
Plant response rating, B. signalgrass ([3]; Rate 250 g/ha, Postemergence as printed in head r139 (second section for compounds 26-50)): 7
Plant response rating, Cocklebur ([4]; Rate 62 g/ha, Postemergence): 8
Cocklebur plant response rating ([4]; Rate 62 g/ha): 0
Plant response rating, Cocklebur ([4]; Rate 125 g/ha, Postemergence): 8
Cocklebur plant response rating ([4]; Rate 125 g/ha): 0
Plant response rating, Cocklebur ([4]; Rate 250 g/ha, Postemergence): 9
Plant response rating, Cocklebur [4, 16]: 0
Plant response rating, Corn (corn (Zea mays); Rate 62 g/ha, Postemergence): 1
Corn plant response rating (corn (Zea mays); Rate 62 g/ha): 0
Plant response rating, Corn (corn (Zea mays); Rate 125 g/ha, Postemergence): 1
Corn plant response rating (corn (Zea mays); Rate 125 g/ha): 0
Plant response rating, Corn (corn (Zea mays); Rate 250 g/ha, Postemergence): 1
Plant response rating, Corn (corn (Zea mays); [16]): 0
Plant response rating, Crabgrass ([5]; Rate 62 g/ha, Postemergence): 1
Crabgrass plant response rating ([5]; Rate 62 g/ha): 1
Plant response rating, Crabgrass ([5]; Rate 125 g/ha, Postemergence): 2
Crabgrass plant response rating ([5]; Rate 125 g/ha): 1
Plant response rating, Crabgrass ([5]; Rate 250 g/ha, Postemergence): 2
Plant response rating, Crabgrass [5, 16]: 3
Plant response rating, Giant foxtail ([6]; Rate 62 g/ha, Postemergence): 1
Giant foxtail plant response rating ([6]; Rate 62 g/ha, Preemergence): 1
Giant foxtail plant response rating ([6]; Rate 125 g/ha, Postemergence): 1
Giant foxtail plant response rating ([6]; Rate 125 g/ha, Preemergence): 2
Plant response rating, Giant foxtail ([6]; Rate 250 g/ha, Postemergence): 2
Plant response rating, Giant foxtail [6, 16]: 5
Plant response rating, Morningglory ([7]; Rate 62 g/ha, Postemergence): 7
Morningglory plant response rating ([7]; Rate 62 g/ha, Preemergence): 1
Morningglory plant response rating ([7]; Rate 125 g/ha, Postemergence): 8
Morningglory plant response rating ([7]; Rate 125 g/ha, Preemergence): 2
Plant response rating, Morningglory ([7]; Rate 250 g/ha, Postemergence): 10
Plant response rating, Morningglory [7, 16]: 3
Plant response rating, Redroot pigweed ([8]; Rate 62 g/ha, Postemergence): 6
Redroot pigweed plant response rating ([8]; Rate 62 g/ha, Preemergence): 8
Redroot pigweed plant response rating ([8]; Rate 125 g/ha, Postemergence): 9
Redroot pigweed plant response rating ([8]; Rate 125 g/ha, Preemergence): 10
Plant response rating, Redroot pigweed ([8]; Rate 250 g/ha, Postemergence): 9
Plant response rating, Redroot pigweed [8, 16]: 10
Plant response rating, Nutsedge ([9]; Rate 62 g/ha, Postemergence): 0
Nutsedge plant response rating ([9]; Rate 62 g/ha, Preemergence): 0
Nutsedge plant response rating ([9]; Rate 125 g/ha, Postemergence): 0
Nutsedge plant response rating ([9]; Rate 125 g/ha, Preemergence): 0
Plant response rating, Nutsedge ([9]; Rate 250 g/ha, Postemergence): 1
Plant response rating, Nutsedge [9, 16]: 0
Plant response rating, Rape (rape (Brassica napus); Rate 62 g/ha, Postemergence): 8
Rape plant response rating (rape (Brassica napus); Rate 62 g/ha, Preemergence): 2
Rape plant response rating (rape (Brassica napus); Rate 125 g/ha, Postemergence): 8
Rape plant response rating (rape (Brassica napus); Rate 125 g/ha, Preemergence): 10
Plant response rating, Rape (rape (Brassica napus); Rate 250 g/ha, Postemergence): 8
Plant response rating, Rape (rape (Brassica napus); [16]): 10
Plant response rating, Soybean (soybean (Glycine max); Rate 62 g/ha, Postemergence): 4
Soybean plant response rating (soybean (Glycine max); Rate 62 g/ha, Preemergence): 0
Soybean plant response rating (soybean (Glycine max); Rate 125 g/ha, Postemergence): 5
Plant response rating, Soybean (soybean (Glycine max); Rate 125 g/ha, Preemergence): 0
Plant response rating, Soybean (soybean (Glycine max); Rate 250 g/ha, Postemergence): 6
Plant response rating, Soybean (soybean (Glycine max); [16]): 1
Plant response rating, Sugarbeets ([10]; Rate 62 g/ha, Postemergence): 9
Sugarbeets plant response rating ([10]; Rate 62 g/ha, Preemergence): 8
Sugarbeets plant response rating ([10]; Rate 125 g/ha, Postemergence): 10
Plant response rating, Sugarbeets ([10]; Rate 125 g/ha, Preemergence): 10
Plant response rating, Sugarbeets ([10]; Rate 250 g/ha, Postemergence): 10
Plant response rating, Sugarbeets [10, 16]: 10
Plant response rating, Velvetleaf ([11]; Rate 62 g/ha, Postemergence): 4
Velvetleaf plant response rating ([11]; Rate 62 g/ha, Preemergence): 6
Velvetleaf plant response rating ([11]; Rate 125 g/ha, Postemergence): 8
Plant response rating, Velvetleaf ([11]; Rate 125 g/ha, Preemergence): 9
Plant response rating, Velvetleaf ([11]; Rate 250 g/ha, Postemergence): 9
Plant response rating, Velvetleaf [11, 16]: 10
Wheat plant response rating ([12]; Rate 62 g/ha, Postemergence): 1
Wheat plant response rating ([12]; Rate 62 g/ha, Preemergence): 0
Wheat plant response rating ([12]; Rate 125 g/ha, Postemergence): 2
Plant response rating, Wheat ([12]; Rate 125 g/ha, Preemergence): 0
Plant response rating, Wheat ([12]; Rate 250 g/ha, Postemergence): 2
Plant response rating, Wheat [12, 16]: 0
Wild oats plant response rating (wild oat (Avena fatua); Rate 62 g/ha, Postemergence): 1
Wild oats plant response rating (wild oat (Avena fatua); Rate 62 g/ha, Preemergence): 2
Wild oats plant response rating (wild oat (Avena fatua); Rate 125 g/ha, Postemergence): 3
Plant response rating, Wild oats (wild oat (Avena fatua); Rate 125 g/ha, Preemergence): 3
Plant response rating, Wild oats (wild oat (Avena fatua); Rate 250 g/ha, Postemergence): 3
Plant response rating, Wild oats (wild oat (Avena fatua); [16]): 4
Plant response rating, Barnyardgrass [13, 17]: 2
Plant response rating, Barnyardgrass [13, 18]: 3
Plant response rating, Barnyardgrass [13, 19]: 3
Plant response rating, Barnyardgrass [13, 20]: 4
Plant response rating, Ducksalad [14, 17]: 2
Plant response rating, Ducksalad [14, 18]: 3
Plant response rating, Ducksalad [14, 19]: 4
Plant response rating, Ducksalad [14, 20]: 6
Plant response rating, Rice (rice (Oryza sativa); [17]): 1
Rice plant response rating (rice (Oryza sativa); [21]): 1
Plant response rating, Rice (rice (Oryza sativa); [19]): 2
Plant response rating, Rice (rice (Oryza sativa); [20]): 2
Plant response rating, S. Flatsedge [15, 17]: 2
S. Flatsedge plant response rating [15, 21]: 5
Plant response rating, S. Flatsedge [15, 19]: 6
Plant response rating, S. Flatsedge [15, 20]: 7
